Experimental findings from ChEMBL document CHEMBL4261568, “Pyrimidine Nucleotides Containing a (S)-Methanocarba Ring as P2Y6 Receptor Agonists” (Medchemcomm, 2017) are described below.

The term EC50 denotes the concentration giving half of the maximal effect. By half-life is commonly meant the time needed for the level to fall by half in the phase considered. The low end stands for rapid decline, the high end for slow decline.

The source made the active and inactive calls.

In one series the target is P2Y purinoceptor 6 (Homo sapiens, UniProt Q15077). Briefly: Agonist activity at human P2Y6 receptor expressed in human 1321N1 cells assessed as induction of calcium mobilization by FLIPR method. The format is functional, cell-based. (In general: A change in cytosolic calcium serves as a functional read-out for many receptors and channels.)
Series [1] is described as follows: Half life in human 1321N1 cell membranes. The format is ADME, cell-based.
For series [2], the target named is P2Y purinoceptor 4 (Homo sapiens) (UniProt P51582). Briefly: Antagonist activity at human P2Y4 receptor expressed in human 1321N1 cells assessed as inhibition of calcium mobilization at 10 uM measured over 2 mins by Fluo-4 dye-based FLIPR method relative to control. It is filed as functional, cell-based.
Series [3] has as its target P2Y purinoceptor 2 (Homo sapiens) (UniProt P41231). The series is described as follows: Agonist activity at human P2Y2 receptor expressed in human 1321N1 cells assessed as induction of calcium mobilization at 10 uM measured over 2 mins by Fluo-4 dye-based FLIPR method relative to control. It is filed as functional, cell-based.
The target of series [4] is P2Y purinoceptor 4 (Homo sapiens) (UniProt P51582). Briefly: Agonist activity at human P2Y4 receptor expressed in human 1321N1 cells assessed as induction of calcium mobilization at 10 uM measured over 2 mins by Fluo-4 dye-based FLIPR method relative to control. It is filed as functional, cell-based.
Series [5] addresses P2Y purinoceptor 1 (Homo sapiens) (UniProt P47900). Briefly: Agonist activity at human P2Y1 receptor expressed in human 1321N1 cells assessed as induction of calcium mobilization at 10 uM measured over 2 mins by Fluo-4 dye-based FLIPR method relative to control. The format is functional, cell-based.
The target is the same in series [6]. Briefly: Antagonist activity at human P2Y1 receptor expressed in human 1321N1 cells assessed as inhibition of calcium mobilization at 10 uM measured over 2 mins by Fluo-4 dye-based FLIPR method relative to control. The format is functional, cell-based.
Series [7] concerns the target P2Y purinoceptor 2 (Homo sapiens) (UniProt P41231). The series is described as follows: Antagonist activity at human P2Y2 receptor expressed in human 1321N1 cells assessed as inhibition of calcium mobilization at 10 uM measured over 2 mins by Fluo-4 dye-based FLIPR method relative to control. It is filed as functional, cell-based.
The target in series [8] is T1, P2Y purinoceptor 11 (Homo sapiens) (UniProt Q96G91).
T1 sequence (whole entry): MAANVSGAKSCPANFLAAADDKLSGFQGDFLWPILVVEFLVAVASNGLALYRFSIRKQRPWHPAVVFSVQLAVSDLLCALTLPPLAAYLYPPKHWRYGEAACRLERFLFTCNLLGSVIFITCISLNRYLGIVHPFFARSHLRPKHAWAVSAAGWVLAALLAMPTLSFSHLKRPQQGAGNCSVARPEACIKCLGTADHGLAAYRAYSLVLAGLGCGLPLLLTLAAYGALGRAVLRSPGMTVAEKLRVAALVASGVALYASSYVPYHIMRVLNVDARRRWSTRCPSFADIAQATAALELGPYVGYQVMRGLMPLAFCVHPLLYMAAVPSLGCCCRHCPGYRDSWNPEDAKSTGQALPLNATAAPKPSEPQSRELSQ
Briefly: Antagonist activity at human P2Y11 receptor expressed in human 1321N1 cells assessed as inhibition of calcium mobilization at 10 uM measured over 2 mins by Fluo-4 dye-based FLIPR method relative to control. It is filed as functional, cell-based.

The target of series [9] is T2, P2Y purinoceptor 14 (Homo sapiens) (UniProt Q15391).
T2 sequence (whole entry): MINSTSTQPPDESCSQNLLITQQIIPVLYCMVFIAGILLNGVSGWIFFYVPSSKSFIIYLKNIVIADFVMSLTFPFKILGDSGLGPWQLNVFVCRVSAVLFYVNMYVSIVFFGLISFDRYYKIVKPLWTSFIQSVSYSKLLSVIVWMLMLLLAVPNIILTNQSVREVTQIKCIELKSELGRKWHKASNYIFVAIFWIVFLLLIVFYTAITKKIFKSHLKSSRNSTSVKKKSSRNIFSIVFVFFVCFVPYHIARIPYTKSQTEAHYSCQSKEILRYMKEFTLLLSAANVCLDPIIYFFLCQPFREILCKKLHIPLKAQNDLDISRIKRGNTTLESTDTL
Briefly: Agonist activity at human P2Y14 receptor expressed in human 1321N1 cells assessed as induction of calcium mobilization at 10 uM measured over 2 mins by Fluo-4 dye-based FLIPR method relative to control. The format is functional, cell-based.

P2Y purinoceptor 6, sequence (Q15077 whole entry): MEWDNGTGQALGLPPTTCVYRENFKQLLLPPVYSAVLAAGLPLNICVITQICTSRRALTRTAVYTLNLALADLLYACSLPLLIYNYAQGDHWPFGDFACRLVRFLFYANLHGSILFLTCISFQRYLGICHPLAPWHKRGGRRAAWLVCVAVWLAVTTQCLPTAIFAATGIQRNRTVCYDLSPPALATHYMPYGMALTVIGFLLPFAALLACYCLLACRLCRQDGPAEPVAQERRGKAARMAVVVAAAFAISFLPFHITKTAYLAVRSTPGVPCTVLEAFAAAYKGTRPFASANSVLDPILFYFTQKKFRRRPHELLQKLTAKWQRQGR
P2Y purinoceptor 1 (Homo sapiens), sequence (P47900 whole entry): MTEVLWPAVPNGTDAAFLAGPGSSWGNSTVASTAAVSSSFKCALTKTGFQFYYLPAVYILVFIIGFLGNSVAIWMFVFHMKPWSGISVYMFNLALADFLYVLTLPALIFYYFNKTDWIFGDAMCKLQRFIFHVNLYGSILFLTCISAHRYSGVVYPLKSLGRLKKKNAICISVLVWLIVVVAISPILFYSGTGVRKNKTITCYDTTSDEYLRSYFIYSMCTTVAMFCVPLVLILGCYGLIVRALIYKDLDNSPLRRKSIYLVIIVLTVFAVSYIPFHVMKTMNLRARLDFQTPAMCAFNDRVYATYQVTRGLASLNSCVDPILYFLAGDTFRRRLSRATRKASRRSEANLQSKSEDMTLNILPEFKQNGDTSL
P2Y purinoceptor 4 (Homo sapiens), sequence (P51582 whole entry): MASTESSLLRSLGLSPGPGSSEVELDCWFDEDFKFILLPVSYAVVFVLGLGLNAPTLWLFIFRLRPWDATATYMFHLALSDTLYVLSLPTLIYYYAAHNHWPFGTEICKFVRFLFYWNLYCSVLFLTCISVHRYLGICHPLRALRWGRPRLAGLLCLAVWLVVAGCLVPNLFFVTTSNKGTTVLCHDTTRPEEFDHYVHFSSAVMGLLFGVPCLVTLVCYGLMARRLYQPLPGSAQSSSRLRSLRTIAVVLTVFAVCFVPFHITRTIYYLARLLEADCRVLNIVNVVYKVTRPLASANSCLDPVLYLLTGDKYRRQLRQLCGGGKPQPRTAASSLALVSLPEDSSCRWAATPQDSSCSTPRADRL
P2Y purinoceptor 2 (Homo sapiens), sequence (P41231 whole entry): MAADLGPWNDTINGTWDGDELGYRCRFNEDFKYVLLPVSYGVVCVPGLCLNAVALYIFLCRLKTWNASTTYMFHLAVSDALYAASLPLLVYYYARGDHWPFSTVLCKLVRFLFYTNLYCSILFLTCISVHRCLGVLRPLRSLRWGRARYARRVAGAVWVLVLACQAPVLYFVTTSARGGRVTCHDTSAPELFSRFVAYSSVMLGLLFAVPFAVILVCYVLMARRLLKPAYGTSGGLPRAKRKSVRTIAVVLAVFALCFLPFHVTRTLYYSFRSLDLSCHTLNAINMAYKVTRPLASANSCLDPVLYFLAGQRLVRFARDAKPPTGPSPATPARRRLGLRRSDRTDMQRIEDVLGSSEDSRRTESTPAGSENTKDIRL

Consider `CO/N=c1/ccn([C@]23C[C@H]2[C@H](COP(=O)(O)OP(=O)(O)OP(=O)(O)OC[C@@]24C[C@@H]2[C@@H](n2ccc(=O)[nH]c2=O)[C@H](O)[C@@H]4O)[C@@H](O)[C@H]3O)c(=O)[nH]1`, for which, on P2Y purinoceptor 6, the concentration for a half-maximal effect (EC50) came to 705 nM.

Take `CCN(CC)CC.CCN(CC)CC.CO/N=c1/ccn([C@@H]2O[C@H](COP(=O)(O)OP(=O)(O)OP(=O)(O)OC[C@H]3O[C@@H](n4ccc(=O)[nH]c4=O)[C@H](O)[C@@H]3O)[C@@H](O)[C@H]2O)c(=O)[nH]1`: the half-life in series [1] was 23 min. In addition, the 50% effective concentration (EC50) at P2Y purinoceptor 6 was 1200 nM.

Take `O=c1[nH]c(=O)n([C@@H]2O[C@H](COP(=O)(O)OP(=O)(O)O)[C@@H](O)[C@H]2O)cc1I`: the EC50 at P2Y purinoceptor 6 was found to be 49.1 nM.

As to `O=c1[nH]/c(=N\OCc2ccccc2)ccn1[C@]12C[C@H]1[C@H](COP(=O)(O)OP(=O)(O)O)[C@@H](O)[C@H]2O`, the EC50 at P2Y purinoceptor 6 was 793 nM.

Compound `CO/N=c1/ccn([C@@H]2O[C@H](COP(=O)(O)OP(=O)(O)O)[C@@H](O)[C@H]2O)c(=O)[nH]1` came in with a half-life in [1] of 55 min.

As for `CO/N=c1/ccn([C@]23C[C@H]2[C@H](COP(=O)(O)OP(=O)(O)OP(=O)(O)OC[C@H]2O[C@@H](n4ccc(=O)[nH]c4=O)[C@H](O)[C@@H]2O)[C@@H](O)[C@H]3O)c(=O)[nH]1`, the Imax was found to be 25% in series [2], 56.8% in [6], 40.3% in series [7] and 0.1% in series [8]. For the same compound, the %max was 16% in series [3], 10.2% in series [4] and -0.6% in series [5]. Also, the EC50 at P2Y purinoceptor 6 is 4120 nM.

`O=c1ccn([C@]23C[C@H]2[C@H](COP(=O)(O)CP(=O)(O)O)[C@@H](O)[C@H]3O)c(=O)[nH]1`: the EC50 at P2Y purinoceptor 6 was found to be 47100 nM.

For `CO/N=c1/ccn([C@]23C[C@H]2[C@H](COP(=O)(O)OP(=O)(O)OP(=O)(O)OC[C@@H]2[C@@H](O)[C@@H](O)[C@@]4(n5cc/c(=N/OC)[nH]c5=O)C[C@@H]24)[C@@H](O)[C@H]3O)c(=O)[nH]1`, the concentration giving a half-maximal response (EC50) at P2Y purinoceptor 6 turned out to be 5490 nM.

For `O=c1[nH]/c(=N\OCc2ccccc2)ccn1[C@]12C[C@H]1[C@H](COP(=O)(O)CP(=O)(O)O)[C@@H](O)[C@H]2O`, at P2Y purinoceptor 6, the 50% effective concentration (EC50) is 4960 nM.

On to `O=c1[nH]c(=O)n([C@]23C[C@H]2[C@H](COP(=O)(O)OP(=O)(O)O)[C@@H](O)[C@H]3O)cc1I`, for which, on P2Y purinoceptor 6, the EC50 was 440 nM.

In the case of `CO/N=c1/ccn([C@@H]2O[C@H](COP(=O)(O)CP(=O)(O)O)[C@@H](O)[C@H]2O)c(=O)[nH]1`, on P2Y purinoceptor 6, the half-maximal effective concentration (EC50) came out at 420 nM.

Consider `CO/N=c1/ccn([C@]23C[C@H]2[C@H](COP(=O)(O)OP(=O)(O)O)[C@@H](O)[C@H]3O)c(=O)[nH]1`, for which the Imax in series [2] is 10%; in series [6], 17%; in [7] it was 16.8%; in [8] it was -3.9%. Besides, the %max in series [3] was 8.9%; in series [4], 2.2%; in series [5] it was -0.5%. Besides, the half-maximal effective concentration (EC50) at P2Y purinoceptor 6 stood at 493 nM.

Consider `O=c1ccn([C@@H]2O[C@H](COP(=O)(O)OP(=O)(O)O)[C@@H](O)[C@H]2O)c(=O)[nH]1`, for which, on P2Y purinoceptor 6, the EC50 turned out to be 132 nM.

On to `CO/N=c1/ccn([C@]23C[C@H]2[C@H](COP(=O)(O)OP(=O)(O)OP(=O)(O)OC[C@@H]2[C@@H](O)[C@@H](O)[C@@]4(n5ccc(=O)[nH]c5=O)C[C@@H]24)[C@@H](O)[C@H]3O)c(=O)[nH]1`, for which, at P2Y purinoceptor 6, the EC50 is 6900 nM.

As for `CO/N=c1/ccn([C@]23C[C@H]2[C@H](COP(=O)(O)CP(=O)(O)O)[C@@H](O)[C@H]3O)c(=O)[nH]1`, at P2Y purinoceptor 6, the concentration for a half-maximal effect (EC50) amounted to 6290 nM.

Consider `O=c1[nH]/c(=N\OCc2ccccc2)ccn1[C@@H]1O[C@H](COP(=O)(O)CP(=O)(O)O)[C@@H](O)[C@H]1O`, for which, at P2Y purinoceptor 6, the EC50 turned out to be 2360 nM.

For the compound `O=c1ccn([C@]23C[C@H]2[C@H](COP(=O)(O)OP(=O)(O)O)[C@@H](O)[C@H]3O)c(=O)[nH]1`, the outcome in series [9] was inactive. For the same compound, the EC50 on P2Y purinoceptor 6 was 438 nM.
